Drug uptake data for one compound are collected here from ChEMBL document CHEMBL4706749, “Development of Fluorescence Imaging Probes for Labeling COX-1 in Live Ovarian Cancer Cells” (ACS Med Chem Lett, 2021).

Data set [1] in a line: Drug uptake in human COX1-negative HCA7 cells at 10 uM incubated for 30 mins by Hoechst-33258 staining based confocal laser scanning microscopic analysis. It is filed as ADME, cell-based. Conditions: hca7, 0.5 h; call rule not given here.
Data set [2] in a line: Drug uptake in human OVCAR-3 cells by measuring perinuclear fluorescence staining at 10 uM incubated for 30 mins by Hoechst-33258 staining based confocal laser scanning microscopic analysis. In kind it is ADME, cell-based. Conditions: ovcar-3, 0.5 h.

In the case of `O=C(O)c1ccc(-n2nc(-c3ccco3)cc2-n2cc(CNc3ccc([N+](=O)[O-])c4nonc34)nn2)cc1`, the results for the Drug uptake entry in data set [1] and in data set [2] were “Not Active” and “Active”, respectively.
